Assays:
[1] = tested on: reporter cell line for IL-2 (EL-4 cells); test: FCC primary screening with IL-2 reporter cells; type: cell-based, mouse; conditions: relative viability×(relative fluorescence−100); PMA and ionomycin activated, compound 0.4 μg/ml, 18 h
Protocol: (§1) Development of reporter cell lines was described previously (Ulleras, E., D. Trzaska, et al. (2005); “Development of the “Cell Chip”: a new in vitro alternative technique for immunotoxicity testing”, Toxicology 206(2): 245-56). Briefly, EL-4 cells were stably transfected with transgene consisting of promoter regions from mouse β-actin, interleukin-2 (IL-2), interleukin-4 (IL-4), interferon-γ (IFN-γ), and interleukin-10 (IL-10) and ORF for EGFP. Reporter cells were cultured at density 5×10^5-1×10^6 cells/ml in a humidified atmosphere with 5% CO2 at 37° C. in RPMI 1640 with Glutamax supplemented with 20% FCS and 0.5 μg/ml G418.
When applicable, cells and reagents handling was performed by JANUS Automated Workstation (PerkinElmer, Waltham, Mass., USA). Cells were seeded at a density of 5×10^4 per well in 96-well plates. In the primary screening reporter cells for IL-2 activated with PMA (50 ng/ml) and ionomycin (1 μM) were seeded in a 96-well plate and incubated with compounds from the chemical library in a total volume of 100 μL at 37° C. in a humidified atmosphere with 5% CO2 for 18 h. Concentration of compounds was 0.4 μg/ml. The final DMSO concentration was 0.2%, DMSO is not cytotoxic towards EL-4 reporter cells at this concentration. Control samples consisted of cells in medium with 0.2% DMSO with PMA (50 ng/ml) and ionomycin (1 μM). Following incubation cells were analyzed by flow cytometry. Viability was assessed in parallel to the level of EGFP-mediated fluorescence.
Selection of compounds was based on FCC parameters calculated using the following formula:
FCC parameter=relative viability×(relative fluorescence−100)
Compounds after primary screening were considered to be hits when FCC parameter calculated after primary screening was ≦−5000. After secondary screening area under the curve (A) of FCC parameter versus relative concentration was calculated (maximum concentration used, i.e. 50 μg/ml, was assumed to be 1).

[2] = tested on: reporter cell line for interleukin-2 (EL-4 cells); test: FCC test, expanded version, IL-2 reporter cell line; type: cell-based, mouse; conditions: IL-2 reporter line; PMA and ionomycin; 1.56 to 50 μg/ml, 50 μg/ml assumed to be 1
Protocol: as §1
(§2) Compounds after primary screening were considered to be hits when FCC parameter calculated after primary screening was ≦−5000. After secondary screening area under the curve (A) of FCC parameter versus relative concentration was calculated (maximum concentration used, i.e. 50 μg/ml, was assumed to be 1). […]
(§3) Flavonoids selected after preliminary screening were undergoing FCC testing using 5 reporter cell lines: for β-actin, interleukin-2 (IL-2), interleukin-4 (IL-4), interferon-γ (IFN-γ) and interleukin-10 (IL-10). The tested concentrations were in the range from 1.56 to 50 μg/ml.
(§4) Using flow cytometry mean fluorescence intensity (columns, left Y axis) and cell viability (dots, the right Y-axis) was determined for all the experimental points and normalized relative to the control—cells incubated with medium with PMA and ionomycin. The data is the mean of the three experiments ±SEM. The statistical significance of differences between means were determined: * p<0.05, ** p<0.01, *** p<0.001 versus control. Values above the graph represent the area under the curve showing the relationship of the FCC parameter and the relative compound concentration.

[3] = tested on: reporter cell line for interleukin-4 (EL-4 cells); test: FCC test, expanded version, IL-4 reporter cell line; type: cell-based, mouse; conditions: IL-4 reporter line; PMA and ionomycin; 1.56 to 50 μg/ml, 50 μg/ml assumed to be 1
Protocol: as §1, §2, §3, §4

[4] = tested on: reporter cell line for interferon-γ (EL-4 cells); test: FCC test, expanded version, IFN-γ reporter cell line; type: cell-based, mouse; conditions: PMA and ionomycin, 1.56 to 50 μg/ml, 50 μg/ml assumed to be 1
Protocol: as §1, §2, §3, §4

[5] = tested on: reporter cell line for interleukin-10 (EL-4 cells); test: FCC test, expanded version, IL-10 reporter cell line; type: cell-based, mouse; conditions: IL-10 reporter line; PMA and ionomycin; 1.56 to 50 μg/ml, 50 μg/ml assumed to be 1
Protocol: as §1, §2, §3, §4

[6] = tested on: IL-2 production by Jurkat cells; test: ELISA for IL-2 in Jurkat cells; type: cell-based; conditions: Jurkat cells, PMA and ionomycin, 24 hours; for inhibition at 50 µg/mL / inhibition at 10 µg/mL: Homo sapiens
Protocol: Jurkat cells were seeded in 48-well plates at a concentration of 1 million/ml. Cells activated with PMA (50 ng/ml) and ionomycin (1 uM) or resting were incubated with 50 selected flavonoids in a concentration of 10 μg/ml and 50 μg/ml for 24 hours in a humidified atmosphere with 5% CO 2 at 37° C. As a control, the respective cells in the medium or in a medium with PMA and ionomycin were employed. After incubation, cells were centrifuged (8 minutes, 1300 rpm), and the cell-free supernatants were stored at −20° C. until measurements. IL-2 was assessed using a commercially available ELISA kits according to the manufacturer's instructions. Each experiment was repeated 3 times.
FCC assay and ELISA assay were repeated three times. Relative data were presented as the means±SEM. […] Statistical significance of differences observed in both assays was tested with ANOVA followed by post hoc Dunnett test using GraphPad software (La Jolla, Calif., USA). In statistical analysis non-relative data were used

[7] = tested on: reporter cell line for β-actin (EL-4 cells); test: FCC test, expanded version, β-actin reporter cell line; type: cell-based, mouse; conditions: PMA and ionomycin, 1.56 to 50 μg/ml, 50 μg/ml assumed to be 1
Protocol: as §1, §2, §3, §4

SMILES | FCC parameter (IL-2 screening) [1] | The area under the curve showing the relationship between the FCC parameter and compound concentration, IL-2 [2] | The area under the curve showing the relationship between the FCC parameter and compound concentration, IL-4 [3] | The area under the curve showing the relationship between the FCC parameter and compound concentration, IFN [4] | The area under the curve showing the relationship between the FCC parameter and compound concentration, IL-10 [5] | Inhibition of IL-2 production (ELISA) ([6]; 10 μg/ml) | inhibition at 50 µg/mL ([6]; 50 μg/ml) | The area under the curve showing the relationship between the FCC parameter and compound concentration, AKT [7] | Inhibition of IL-2 production (ELISA) ([6]; 50 μg/ml) | inhibition at 10 µg/mL ([6]; 10 μg/ml)
COc1ccc(C2CC(=O)c3cc(O)cc(O)c3O2)cc1 (stereo not shown) [Compound 1, 6,8-dihydroxy-2-(4-methoxyphenyl)chroman-4-one] | −8723 | −2178 | −194 | −1865 | −1435 | No | 97% | −622 |  | 
CC1(C)CC2(CC(c3ccccc3)Oc3cc(O)ccc32)NC(=S)N1 (stereo not shown) [Compound 2, Spiro[4H-1-benzopyran-4,4′(1′H)-pyrimidine]-2′(3′H)-thione, 2,3,5′,6′-tetrahydro-7-hydroxy-6′,6′-dimethyl-2-phenyl] | −5484 | −2394 | 261 | −3977 | −2585 | 35% |  | −1120 | 91% | 
CC(=O)Oc1ccc(/C=C/C(=O)CC2OC(Oc3cc(OC(C)=O)c4c(c3)O[C@@H](c3ccc(OC(C)=O)cc3)CC4=O)C(OC(C)=O)C(OC(C)=O)C2OC(C)=O)cc1 (stereo partly drawn) [Compound 3, 4-(7-{6-[(3E)-4-(4-acetyloxyphenyl)-2-oxobut-3-enyl]-3,4,5-triacetyloxy(2H-3,4,5,6-tetrahydropyran-2-yloxy)}(2R)-5-acetyloxy-4-oxochroman-2-yl)phenyl acetate] | −5095 | −4581 | −308 | −3801 | −1509 | 64% |  | 945 | 68% | 
CC(=O)Oc1ccc2c(c1)OC(c1ccccc1)CC21CC(C)(C)NC(=S)N1 (stereo not shown) [Compound 4, 7-acetoksy-2,3,5′,6′-tetrahydro-6′,6′-dimetylo-2-fenylo-spiro[4H-1-benzopirano-4,4′(1′H)-pirymidyno]-2′(3′H)-tion] | −5692 | −1081 | 988 | −3521 | −1928 | 27% |  | −104 | 44% | 
CC(C)=CCc1c(O)cc(O)c2c1OC(c1ccc(O)cc1)CC2=O (stereo not shown) [Compound 5, 5,7-dihydroxy-2-(4-hydroxyphenyl)-8-(3-methylbut-2-enyl)chroman-4-one] | −5264 | −4991 | −3324 | −4565 | −3119 |  | 95% | −979 |  | 28%
O=C1CC(c2ccccc2O)Oc2ccc(O)cc21 (stereo not shown) [Compound 6, 6-hydroxy-2-(2-hydroxyphenyl)chroman-4-one] | −5169 | −2227 | 367 | −2999 | −179 |  | 100% | 3622 |  | 58%
COc1ccc2c(c1)OC(c1cccc(OC)c1OC)CC2=O (stereo not shown) [Compound 7, 2-(2,3-dimethoxyphenyl)-7-methoxychroman-4-one] | −6178 | −4104 | −1865 | −5873 | −2889 |  | 92% | −1357 |  | 67%
COc1cc(OC)c2c(c1)OC(c1ccccc1)CC2=O (stereo not shown) [Compound 8, 5,7-dimethoxy-2-phenylchroman-4-one] | −5788 | −2590 | 2380 | −4396 | −628 |  | 100% | 3973 |  | 80%

Reference: patent US20170189372A1, “USE OF SUBSTITUTED CHROMAN COMPOUNDS” (INSTYTUT BIOLOGII MEDYCZNEJ, priority 2014, published 2017)
